Experimental data from patent US20260306644A1, “ANTIBODY RECRUITING MOLECULES FOR THE TREATMENT OF CORONAVIRUS DISEASE-19” (priority 2023, published 2026).
Several values for one entry are separate records, joined by “and”; a condition that tells them apart may be missing. Identical values can stand only once. Like-named read-outs stand apart in the source and are kept apart here. Positions of bridges follow the written chain, without caps; N, C: chain ends. Non-standard residues stand in square brackets, D forms with d. Residues, ends and D or L forms follow the SMILES beside them. No end group written: not given here. *: point of attachment. Biotin = O=C1N[C@H]2[C@H](CS[C@H]2CCCCC(=O)*)N1; PEG4 = NCCOCCOCCOCCOCCC(=O)O; Nle = CCCC[C@H](N)C(=O)O; Aib = CC(C)(N)C(=O)O

How the values were obtained:
SARS-CoV-2 Spike protein = SARS-CoV-2 Spike protein (Severe acute respiratory syndrome coronavirus 2, UniProt P0DTC2); experiment: Ternary binding of SARS-CoV-2 Spike protein (293T cells expressing Spike-GFP, IgG-AF647, flow cytometry); format: cell-based; conditions: IgG-AF647 10 μg/ml, repeat values/batches listed separately
[1] = system: live SARS-CoV-2 Virus (wildtype); experiment: Neutralization of live SARS-CoV-2 virus, wildtype (Vero E6 cells, nucleoprotein ELISA); format: cell-based
[2] = target: T1, SARS-CoV-2 Spike A (wild-type) (Severe acute respiratory syndrome coronavirus 2, UniProt P0DTC2); experiment: MSD ACE2 competition assay (inhibition of Spike binding with ACE2, ECL), A (wild-type); conditions: IC50 Wild Type, Wild Type Spike
T1 construct: purchased Meso Scale Diagnostics, LLC V-PLEX SARS-CoV-2 Panel 13 (ACE2) Kit / Panel 23 (ACE2) Kit

[3] = system: Spike RBD coated magnetic beads / RAW 264.7 macrophages; experiment: Antibody-dependent cellular phagocytosis (ADCP), RAW 264.7 macrophages and Spike RBD coated magnetic beads, flow cytometry; format: cell-based; conditions: 37° C., 2 hours, read-out: SARS-COV-2 ADCP EC50
Procedure: The ability of the compounds to mediate antibody-dependent cellular phagocytosis (ADCP) was assessed using RAW 264.7 macrophages and Spike RBD coated magnetic beads (https://www.acrobiosystems.com/P3194-SARS-CoV-2-Spike-RBD-coupled-Magnetic-Beads.html). Spike RBD coated magnetic beads (3 ul per well) were added to each well of a round bottom 96-well plates. RAW264.7 cells (50,000 cells per well) were added to the beads. Next, the compounds were administered to predetermined final concentrations. The cell-bead mixtures were incubated at 37° C. for 2 hours. The mixtures were then analyzed by flow cytometry.

[4] = target: T2, SARS-CoV-2 Spike Glycoprotein RBD protein (Severe acute respiratory syndrome coronavirus 2, UniProt P0DTC2); experiment: Binding of biotinylated ligands to SARS-CoV-2 Spike Glycoprotein RBD protein by ELISA
T2 construct: SARS-CoV-2 (COVID-19) S Protein RBD, His Tag; purchased Acro Biosystems SPD-C52H3
Procedure: Materials. The binding affinity of biotinylated ligands to SARS-CoV-2 Spike Glycoprotein RBD protein was determined by ELISA. The binding assay was performed using the following steps: (1) assay plates (PE B&W Isoplate 96-well Flat Bottom, High Bindi-g - Perkin Elmer 6005580) were coated with 100 ul Anti-6× His tag antibody (Anti-6× His tag Antibody; Abcam ab15149, Mouse Monoclonal; Cambridge, UK) at 5 μg/ml in PBS, incubate 1 hour at 37° C. without shaking. The plates were washed (each wash step of this assay includes four 1-minute washes with 200 ul phosphate-buffered saline-0.05% (w/v) Tween® 20 detergent (PBST)). (2) Plates were blocked with 200 ul PBST-5% BSA (PBSTB; American Bio AB01088-00100; Canton, MA), for an hour at room temperature on a plate shaker (400 rpm). The plates were washed. […] The plates were washed. (4) Ligands were added, 100 ul at a concentration range of 0.1 mM to 100 nM in PBSTB, and incubated for 1 hour at room temperature on a plate shaker (200 RPM). The plates were washed. (5) NeutrAvidin™-HRP (Invitrogen 31030; Waltham, MA) is added, 100 ul at a dilution of 1:20,000 in PBSTB, and incubated for 1 hour at room temperature on a plate shaker (200 RPM). The plates were washed. (6) SuperSignal ELISA Pico Chemiluminescent Substrate (Thermo Scientific 37069; Waltham, MA) was added and incubated for 5 minutes at room temperature on a plate shaker (200 RPM).

[5] = 293T cells expressing Spike-GFP, read-out: SARS-CoV-2 Ternary binding EC50
[6] = live virus neutralization, isolate Seattle WA (IITRI), Vero E6
[7] = ELISA, biotinylated ligands, Spike RBD, read-out: ELISA SARS-CoV-2 Spike RBD Protein Binding EC50

Compound: Ac-DCAWHLGELVWCTDKEWILQKIYEIMRLLDELGHAEASMRVSDLIYEFMKKGDERLLEEAERLLEEVER (disulfide 2-12) [Compound 120]
- EC50 (SARS-CoV-2 Spike protein; [5]): 0.33 nM and 0.31 nM
- EC50 [1, 6]: 0.001 nM
- IC50 [2]: < 10 nM and 1.57 nM
- EC50 [3]: 1.9 nM and 1.8 nM

Compound: DKEWILQKIYEIMRLLDELGHAEASMRVSDLIYEFMKKGDERLLEEAERLLEEVERDCAWHLGELVWCT (disulfide 58-68) [Compound 111]
- EC50 [1, 6]: 0.14 nM
- IC50 [2]: 1.39 nM

Compound: CC[C@H](C)[C@H](NC(=O)[C@H](CC(C)C)NC(=O)[C@H](CC(=O)O)NC(=O)[C@H](CO)NC(=O)[C@@H](NC(=O)[C@H](CCCNC(=N)N)NC(=O)[C@H](CCSC)NC(=O)[C@H](CO)NC(=O)[C@H](C)NC(=O)[C@H](CCC(=O)O)NC(=O)[C@H](C)NC(=O)[C@H](Cc1c[nH]cn1)NC(=O)CNC(=O)[C@H](CC(C)C)NC(=O)[C@H](CCC(=O)O)NC(=O)[C@H](CC(=O)O)NC(=O)[C@H](CC(C)C)NC(=O)[C@H](CC(C)C)NC(=O)[C@H](CCCNC(=N)N)NC(=O)[C@H](CCSC)NC(=O)[C@@H](NC(=O)[C@H](CCC(=O)O)NC(=O)[C@H](Cc1ccc(O)cc1)NC(=O)[C@@H](NC(=O)[C@H](CCCCN)NC(=O)[C@H](CCC(N)=O)NC(=O)[C@H](CC(C)C)NC(=O)[C@@H](NC(=O)[C@H](Cc1c[nH]c2ccccc12)NC(=O)[C@H](CCC(=O)O)NC(=O)[C@H](CCCCN)NC(=O)[C@H](CC(=O)O)NC(=O)CCOCCOCCOCCOCCOCCOCCOCCOCCNC(=O)CCOCCOCCOCCOCCOCCOCCOCCOCCC(=O)N[C@@H](CC(=O)O)C(=O)N[C@H]1CSSC[C@@H](C(=O)N[C@H](C(N)=O)[C@@H](C)O)NC(=O)[C@H](Cc2c[nH]c3ccccc23)NC(=O)[C@H](C(C)C)NC(=O)[C@H](CC(C)C)NC(=O)[C@H](CCC(=O)O)NC(=O)CNC(=O)[C@H](CC(C)C)NC(=O)[C@H](Cc2c[nH]cn2)NC(=O)[C@H](Cc2c[nH]c3ccccc23)NC(=O)[C@H](C)NC1=O)[C@@H](C)CC)[C@@H](C)CC)[C@@H](C)CC)C(C)C)C(=O)N[C@@H](Cc1ccc(O)cc1)C(=O)N[C@@H](CCC(=O)O)C(=O)N[C@@H](Cc1ccccc1)C(=O)N[C@@H](CCSC)C(=O)N[C@@H](CCCCN)C(=O)N[C@@H](CCCCN)C(=O)NCC(=O)N[C@@H](CC(=O)O)C(=O)N[C@@H](CCC(=O)O)C(=O)N[C@@H](CCCNC(=N)N)C(=O)N[C@@H](CC(C)C)C(=O)N[C@@H](CC(C)C)C(=O)N[C@@H](CCC(=O)O)C(=O)N[C@@H](CCC(=O)O)C(=O)N[C@@H](C)C(=O)N[C@@H](CCC(=O)O)C(=O)N[C@@H](CCCNC(=N)N)C(=O)N[C@@H](CC(C)C)C(=O)N[C@@H](CC(C)C)C(=O)N[C@@H](CCC(=O)O)C(=O)N[C@@H](CCC(=O)O)C(=O)N[C@H](C(=O)N[C@@H](CCC(=O)O)C(=O)N[C@@H](CCCNC(=N)N)C(N)=O)C(C)C [Compound 128]
- EC50 ([1]; read-out: Seattle WA (IITRI) EC50): 0.042 nM
- EC50 [3]: 0.045 nM and 0.052 nM

Compound: CC[C@H](C)[C@H](NC(=O)[C@H](CC(C)C)NC(=O)[C@H](CC(=O)O)NC(=O)[C@H](CO)NC(=O)[C@@H](NC(=O)[C@H](CCCNC(=N)N)NC(=O)[C@H](CCSC)NC(=O)[C@H](CO)NC(=O)[C@H](C)NC(=O)[C@@H]1CCCN1C(=O)[C@H](C)NC(=O)[C@H](Cc1c[nH]cn1)NC(=O)CNC(=O)[C@H](CC(C)C)NC(=O)[C@H](CCC(=O)O)NC(=O)[C@H](CC(=O)O)NC(=O)[C@H](CC(C)C)NC(=O)[C@H](CC(C)C)NC(=O)[C@H](CCCNC(=N)N)NC(=O)[C@H](CCSC)NC(=O)[C@@H](NC(=O)[C@H](CCC(=O)O)NC(=O)[C@H](Cc1ccc(O)cc1)NC(=O)[C@@H](NC(=O)[C@H](CCCCN)NC(=O)[C@H](CCC(N)=O)NC(=O)[C@H](CC(C)C)NC(=O)[C@@H](NC(=O)[C@H](Cc1c[nH]c2ccccc12)NC(=O)[C@H](CCC(=O)O)NC(=O)[C@H](CCCCN)NC(=O)[C@H](CC(=O)O)NC(=O)[C@H](CO)NC(=O)CCOCCOCCOCCOCCNC(=O)CCCC[C@@H]1SC[C@@H]2NC(=O)N[C@@H]21)[C@@H](C)CC)[C@@H](C)CC)[C@@H](C)CC)C(C)C)C(=O)N[C@@H](Cc1ccc(O)cc1)C(=O)N[C@@H](CCC(=O)O)C(=O)N[C@@H](Cc1ccccc1)C(=O)N[C@@H](CCSC)C(=O)N[C@@H](CCCCN)C(=O)N[C@@H](CCCCN)C(=O)NCC(N)=O [Compound 193] ({Biotin-PEG4}-SDKEWILQKIYEIMRLLDELGHAPASMRVSDLIYEFMKKG-NH2)
- EC50 [4, 7]: 4.6 nM
- EC50 (SARS-CoV-2 Spike protein; [5]): 2.3 nM and 0.24 nM

Compound: {Biotin-PEG4}-[Aib]SDKEWILQKIYEIMRLLDELGHAEAS[Nle]RVSDLIY[Aib]FMK[Aib]G [Compound 218]
- EC50 [4, 7]: 2.38 nM
- EC50 (SARS-CoV-2 Spike protein; [5]): 0.1 nM

Compound: CC[C@H](C)[C@H](NC(=O)[C@H](CC(C)C)NC(=O)[C@H](CC(=O)O)NC(=O)[C@H](CO)NC(=O)[C@@H](NC(=O)[C@H](CCCNC(=N)N)NC(=O)[C@H](CCSC)NC(=O)[C@H](CO)NC(=O)[C@H](C)NC(=O)[C@@H]1CCCN1C(=O)[C@H](C)NC(=O)[C@H](Cc1c[nH]cn1)NC(=O)CNC(=O)[C@H](CC(C)C)NC(=O)[C@H](CCC(=O)O)NC(=O)[C@H](CC(=O)O)NC(=O)[C@H](CC(C)C)NC(=O)[C@H](CC(C)C)NC(=O)[C@H](CCCNC(=N)N)NC(=O)[C@H](CCSC)NC(=O)[C@@H](NC(=O)[C@H](CCC(=O)O)NC(=O)[C@H](Cc1ccc(O)cc1)NC(=O)[C@@H](NC(=O)[C@H](CCCCN)NC(=O)[C@H](CCC(N)=O)NC(=O)[C@H](CC(C)C)NC(=O)[C@@H](NC(=O)[C@H](Cc1c[nH]c2ccccc12)NC(=O)[C@H](CCC(=O)O)NC(=O)[C@H](CCCCN)NC(=O)[C@H](CC(=O)O)NC(=O)CCOCCOCCOCCOCCNC(=O)CCCC[C@@H]1SC[C@@H]2NC(=O)N[C@@H]21)[C@@H](C)CC)[C@@H](C)CC)[C@@H](C)CC)C(C)C)C(=O)N[C@@H](Cc1ccc(O)cc1)C(=O)N[C@@H](CCC(=O)O)C(=O)N[C@@H](Cc1ccccc1)C(=O)N[C@@H](CCSC)C(=O)N[C@@H](CCCCN)C(=O)N[C@@H](CCCCN)C(=O)NCC(=O)N[C@@H](CC(=O)O)C(=O)N[C@@H](CCC(=O)O)C(=O)N[C@@H](CCCNC(=N)N)C(=O)N[C@@H](CC(C)C)C(=O)N[C@@H](CC(C)C)C(=O)N[C@@H](CCC(=O)O)C(=O)N[C@@H](CCC(=O)O)C(=O)N[C@@H](C)C(=O)N[C@@H](CCC(=O)O)C(=O)N[C@@H](CCCNC(=N)N)C(=O)N[C@@H](CC(C)C)C(=O)N[C@@H](CC(C)C)C(=O)N[C@@H](CCC(=O)O)C(=O)N[C@@H](CCC(=O)O)C(=O)N[C@H](C(=O)N[C@@H](CCC(=O)O)C(=O)N[C@@H](CCCNC(=N)N)C(N)=O)C(C)C [Compound 187]
- EC50 [4]: 0.37 nM
- EC50 (SARS-CoV-2 Spike protein; SARS-CoV-2 Ternary binding EC50, 293T cells expressing Spike-GFP): 0.07 nM

Compound: CC[C@H](C)[C@H](NC(=O)[C@H](CC(C)C)NC(=O)[C@H](CC(=O)O)NC(=O)[C@H](CO)NC(=O)[C@@H](NC(=O)[C@H](CCCNC(=N)N)NC(=O)[C@H](CCSC)NC(=O)[C@H](CO)NC(=O)[C@H](C)NC(=O)[C@H](CCC(=O)O)NC(=O)[C@H](C)NC(=O)[C@H](Cc1c[nH]cn1)NC(=O)CNC(=O)[C@H](CC(C)C)NC(=O)[C@H](CCC(=O)O)NC(=O)[C@H](CC(=O)O)NC(=O)[C@H](CC(C)C)NC(=O)[C@H](CC(C)C)NC(=O)[C@H](CCCNC(=N)N)NC(=O)[C@H](CCSC)NC(=O)[C@@H](NC(=O)[C@H](CCC(=O)O)NC(=O)[C@H](Cc1ccc(O)cc1)NC(=O)[C@@H](NC(=O)[C@H](CCCCN)NC(=O)[C@H](CCC(N)=O)NC(=O)[C@H](CC(C)C)NC(=O)[C@@H](NC(=O)[C@H](Cc1c[nH]c2ccccc12)NC(=O)[C@H](CCC(=O)O)NC(=O)[C@H](CCCCN)NC(=O)[C@H](CC(=O)O)NC(=O)[C@H](CO)NC(=O)C(C)(C)NC(=O)CCOCCOCCOCCOCCNC(=O)CCCC[C@@H]1SC[C@@H]2NC(=O)N[C@@H]21)[C@@H](C)CC)[C@@H](C)CC)[C@@H](C)CC)C(C)C)C(=O)N[C@@H](Cc1ccc(O)cc1)C(=O)N[C@@H](CCC(=O)O)C(=O)N[C@@H](Cc1ccccc1)C(=O)N[C@@H](CCSC)C(=O)N[C@@H](CCCCN)C(=O)N[C@@H](CCCCN)C(=O)N[C@H](Cc1ccccc1)C(=O)O [Compound 216]
- EC50 [4, 7]: 1.11 nM
- EC50 (SARS-CoV-2 Spike protein; [5]): 0.46 nM
